Like-named read-outs stand apart in the source and are kept apart here.
Key:
F508del/F508del CFTR = target: T1, F508del/F508del CFTR (Homo sapiens, UniProt P13569, DEL508-508); assay: Trans-Epithelial Current Clamp (TECC) assay using primary human bronchial epithelial cells; assay type: cell-based; details: for Emax (% Dual): maximum percent activity relative to positive control (co-corrector 0.15 μM + potentiator 0.45 μM = 100%); for EC50: primary hBE cells F508del/F508del, test corrector with co-corrector and potentiator, 18-24 hours, equivalent CFTR current
T1 construct: cells isolated from CF patients with the homozygous mutation; endogenous in cells; host or cells: primary human bronchial epithelial (hBE) cells from CF patients homozygous for F508del
T1 sequence (P13569 with tags, fused parts or gaps DEL508-508): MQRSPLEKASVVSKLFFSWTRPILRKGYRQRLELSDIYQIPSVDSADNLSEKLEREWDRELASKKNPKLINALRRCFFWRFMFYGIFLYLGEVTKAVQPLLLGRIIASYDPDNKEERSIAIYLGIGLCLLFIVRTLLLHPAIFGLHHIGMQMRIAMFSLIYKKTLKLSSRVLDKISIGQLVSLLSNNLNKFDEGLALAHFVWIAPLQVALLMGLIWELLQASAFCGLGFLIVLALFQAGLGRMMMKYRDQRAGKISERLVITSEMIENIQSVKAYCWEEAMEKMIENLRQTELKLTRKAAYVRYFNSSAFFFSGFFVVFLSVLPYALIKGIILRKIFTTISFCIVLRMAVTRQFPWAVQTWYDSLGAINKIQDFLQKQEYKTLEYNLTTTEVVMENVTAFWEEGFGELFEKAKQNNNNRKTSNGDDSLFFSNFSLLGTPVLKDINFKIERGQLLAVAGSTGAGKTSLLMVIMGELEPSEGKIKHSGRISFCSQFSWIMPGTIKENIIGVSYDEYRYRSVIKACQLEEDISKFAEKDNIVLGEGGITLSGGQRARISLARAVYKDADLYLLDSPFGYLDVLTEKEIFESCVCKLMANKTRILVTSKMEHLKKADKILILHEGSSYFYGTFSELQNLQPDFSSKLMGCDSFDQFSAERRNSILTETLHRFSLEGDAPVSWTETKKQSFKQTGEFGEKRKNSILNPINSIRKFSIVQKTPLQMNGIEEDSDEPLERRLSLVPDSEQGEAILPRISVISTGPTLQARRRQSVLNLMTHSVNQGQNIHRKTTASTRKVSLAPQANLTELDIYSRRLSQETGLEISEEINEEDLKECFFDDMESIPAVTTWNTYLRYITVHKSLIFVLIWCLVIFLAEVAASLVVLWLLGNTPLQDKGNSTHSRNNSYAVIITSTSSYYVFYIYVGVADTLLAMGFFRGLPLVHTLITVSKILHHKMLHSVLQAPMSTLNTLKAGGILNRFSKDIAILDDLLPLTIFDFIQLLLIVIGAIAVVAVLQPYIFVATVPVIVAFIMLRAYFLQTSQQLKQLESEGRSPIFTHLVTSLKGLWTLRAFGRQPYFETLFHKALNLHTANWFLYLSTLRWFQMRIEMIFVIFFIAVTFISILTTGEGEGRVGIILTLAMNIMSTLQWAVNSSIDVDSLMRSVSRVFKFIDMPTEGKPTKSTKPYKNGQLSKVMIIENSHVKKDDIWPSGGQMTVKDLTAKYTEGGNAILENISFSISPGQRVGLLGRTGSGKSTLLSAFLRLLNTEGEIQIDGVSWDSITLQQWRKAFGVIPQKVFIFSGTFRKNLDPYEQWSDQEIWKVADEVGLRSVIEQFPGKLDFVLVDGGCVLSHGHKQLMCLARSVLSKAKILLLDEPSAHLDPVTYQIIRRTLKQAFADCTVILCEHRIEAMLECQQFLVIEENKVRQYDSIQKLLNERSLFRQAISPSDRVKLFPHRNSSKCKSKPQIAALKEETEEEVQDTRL
Excerpt: A cell-based assay was developed using the primary human bronchial epithelial cells (hBE cells) with F508del/F508del CFTR and other mutations.
Primary human bronchial epithelial (hBE) cells from CFTR patients with homozygous F508del/F508del mutation were expanded from 1×10^6 to 250×10^6 cells (Neuberger, T et al., 2011, Methods Mol Biol 741:39-54). For this purpose, cells isolated from CF patients with the homozygous mutation, procured from the CF center tissue procurement and cell culture core at the Marsico Lung Institute at UNC (Randell), the Cystic Fibrosis translational research center at McGill University (University), and Rosalind Franklin University Medical School (RFUMS) were seeded onto 24 well Corning (Cat #3378) filter plates that were coated with 3T3 conditioned media and grown at an air-liquid interface for 35 days using an Ultroser® G supplemented differentiation media. All the primary human bronchial epithelial cells were collected in accordance with institutional review board approval protocols. Apical surface mucus was removed 72 hours before the experiment by incubating the apical surface of the cells for 30 minutes with 3 mM dithiothreitol (DTT) prepared in Dulbecco's phosphate buffered saline (DPBS) with Ca^2+ and Mg^2+. This was followed with aspiration of the mucus from the apical surface along with DPBS. The apical surface was re-washed with phosphate buffered saline (PBS) incubated for 30 minutes followed with aspiration. These hBE cells were then incubated with the desired concentrations of the test C2 corrector compounds along with co-corrector, 4-[(2R,4R)-4-({[1-(2,2-difluoro-1,3-benzodioxol-5-yl)cyclopropyl]carbonyl}amino)-7-(difluoromethoxy)-3,4-dihydro-2H-chromen-2-yl]benzoic acid and potentiator, (5-{3-amino-5-[4-(trifluoromethoxy)benzene-1-sulfonyl]pyridin-2-yl}-1,3,4-oxadiazol-2-yl)methanol, for 18-24 hours at 37° C., 5% CO2. The desired concentrations of the correctors and potentiator compounds were prepared from the 10 mM stocks in differentiation media and were always applied on the basolateral side of the epithelial cells. We also used an assay format where a fixed concentration of potentiator was added chronically along with the corrector compounds. This chronic treatment with the potentiator helped eliminate any interaction that might happen with CFTR modulators (correctors and potentiators) and thereby determined the true efficacy of the modulator combinations reflective of clinical relevance.
The assay uses a Transepithelial Current Clamp (TECC) (Vu, C B et al., 2017; J Med Chem 60:458-473) instrument that can measure the functionality of the mutated channel by measuring the equivalent CFTR current (IEQ) generated by the polarized primary epithelial cells. We used a TECC-24 with a 24-channel electrode manifold allowing for the simultaneous measurement of the transepithelial voltage, VT, and transepithelial resistance, RT, under current clamp conditions, from 24 filters using a 24 well Costar filter plate. The design of the filters in the 24 well filter plates was exactly the same as the design of an individual Transwell filter used in the classical Ussing Chamber with a surface area of 0.33 cm^2. Each measured VT values were corrected for the electrode offset potential measured using buffer alone in a separate plate, and each measured RT values were then corrected for the combined solution series and empty filter resistances. The corrected VT and RT values were then used to calculate the equivalent current, IEQ using Ohm's law (IEQ=VT/RT). The area under the curve (AUC) for the time period between the forskolin peak IEQ response and at the time of bumetanide addition was also calculated using a one-third trapezoid method, in addition to calculating the IEQ. The assay was run in a 24-well format and all 24-wells were measured at the same time point giving a higher throughput for this assay. […]

F508delCFTR = target: T2, F508delCFTR (Homo sapiens, UniProt P13569, DEL508-508); assay: Cell Surface Expression-Horse Radish Peroxidase (CSE-HRP) assay in CFBE41o-F508delCFTR-HRP cells; assay type: cell-based; details: for EC50: CFBE41o-F508delCFTR-HRP cells, 18-24 hours at 33° C.; for Maximum % activity (with co-corrector) / Emax: normalized to on-plate positive control; for Emax: read-out: Maximum % activity (without co-corrector)
T2 construct: expressed in transfected cells; host or cells: CFBE41o- human lung derived epithelial cell line, doxycycline-induced expression
T2 sequence (P13569 with tags, fused parts or gaps DEL508-508): as above
Protocol: A cellular assay for measuring the F508delCFTR cell surface expression after correction with test compounds either without or with a co-corrector (2 μM of 3-[(2R,4R)-4-({[1-(2,2-difluoro-1,3-benzodioxol-5-yl)cyclopropyl]carbonyl}amino)-7-methoxy-3,4-dihydro-2H-chromen-2-yl]benzoic acid), was developed in human lung derived epithelial cell line (CFBE41o-) (Veit G et al, (2012) Mol Biol Cell. 23(21): 4188-4202). The development was achieved by expressing the F508delCFTR mutation along with a horseradish peroxidase (HRP) in the fourth exofacial loop, and then measuring the HRP activity using luminescence readout from these cells, CFBE41o-F508delCFTR-HIRP, that were incubated overnight with the test corrector compounds, either without or with the co-corrector. For this primary assay, the CFBE41o-F508delCFTR-HRP cells were plated in 384-well plates (Greiner Bio-one; Cat 781080) at 4,000 cells/well along with 0.5 μg/mL doxycycline to induce the F508delCFTR-HRP expression and further incubated at 37° C., […] for 68-72 hours. The test compounds were then added either without or with a co-corrector at the required concentrations and further incubated for 18-24 hours at 33° C. The highest concentration tested was 20 μM or 30 μM (GI-1 to GIII-36) with an 8-point concentration response curve using a 3-fold dilution in both the test compound without or with the co-corrector. Three replicate plates were run to determine one EC50. All plates contained negative controls (dimethyl sulfoxide, DMSO) and positive control (2 μM or 3 μM (GI-1 to GIII-36) of 3-[(2R,4R)-4-({[1-(2,2-difluoro-1,3-benzodioxol-5-yl)cyclopropyl]carbonyl}amino)-7-methoxy-3,4-dihydro-2H-chromen-2-yl]benzoic acid) as well as on-plate concentration response of the positive control. Post incubation, the plates were washed 5× times with Dulbecco's phosphate buffered saline (DPBS), followed by the addition of the HRP substrate, luminol (50 μL), and measuring the HRP activity using luminescence readout on EnVision® Multilabel Plate Reader (Perkin Elmer; product number 2104-0010). The raw counts from the experiment were analyzed using Accelrys® Assay Explorer v3.3.
Z′ greater than 0.5 was used as passing quality control criteria for the plates. The Z′ is defined as:
1−[3*SDPositive Control+3*SDNegative Control/Absolute(MeanPositive Control−MeanNegative Control)]
The % activity measured at each of the 8 test concentrations of the test compound added either without or with a co-corrector (2 μM or 3 μM (GI-1 to GIII-36) of 3-[(2R,4R)-4-({[1-(2,2-difluoro-1,3-benzodioxol-5-yl)cyclopropyl]carbonyl}amino)-7-methoxy-3,4-dihydro-2H-chromen-2-yl]benzoic acid) was normalized to the on-plate positive control using the following formulae:
% activity (Test compound without co-corrector)=[(test compound without co-corrector response−DMSO response)/(positive control response−DMSO response)]*100
% activity (Test compound with co-corrector)=[(test compound with co-corrector response−DMSO response)/(positive control response−DMSO response)]*100
The maximum % activity achieved for the test compound either without or with a co-corrector at any tested concentration is presented in Table 3 along with the respective EC50's calculated using the following general sigmoidal curve with variable Hill slope equation (described as Model 42 in the Accelrys® Assay Explorer v3.3 software):
General sigmoidal curve with concentration, response, top, bottom, EC50 and Hill slope. This model describes a sigmoidal curve with an adjustable baseline, a. The equation can be used to fit curves where response is either increasing or decreasing with respect to the independent variable, “x”.

[1] = with co-corrector 2 μM, read-out: EC50 (with co-corrector)
[2] = without co-corrector, read-out: EC50 (without co-corrector)

With CCc1ccc(Oc2ccccc2)c([C@]2(C(=O)NS(=O)(=O)c3cccc4nc(C)ccc34)CCCO2)c1 [Example 22, (2S)-2-(5-ethyl-2-phenoxyphenyl)-N-(2-methylquinoline-5-sulfonyl)oxolane-2-carboxamide] the “Emax (% Dual)” value (F508del/F508del CFTR) was 200 % Dual, the EC50 (F508del/F508del CFTR) was 589 nM and the EC50 (F508delCFTR; [1]) was 1140 nM. The “Maximum % activity (with co-corrector)” value (F508delCFTR; with co-corrector 2 μM) was 673%, the EC50 (F508delCFTR; [2]) was 1950 nM and the Emax (F508delCFTR; without co-corrector) was 235%.

For CCc1ccc(Oc2ccccc2)c([C@@]2(C(=O)NS(=O)(=O)c3cccc4nc(C)ccc34)CCCO2)c1 [Example 23, (2R)-2-(5-ethyl-2-phenoxyphenyl)-N-(2-methylquinoline-5-sulfonyl)oxolane-2-carboxamide], the “Emax (% Dual)” value (F508del/F508del CFTR) was 241 % Dual, the EC50 (F508del/F508del CFTR) was 20 nM and the EC50 (F508delCFTR; [1]) was 480 nM. For the same compound, the EC50 (F508delCFTR; [2]) was 1070 nM and the Emax (F508delCFTR; without co-corrector) was 726%.

For CCc1ccc(Oc2cccnc2OC)c([C@]2(C(=O)NS(=O)(=O)c3cccc4nc(C)ccc34)CCCO2)c1 [Example 24, (2S)-2-{5-ethyl-2-[(2-methoxypyridin-3-yl)oxy]phenyl}-N-(2-methylquinoline-5-sulfonyl)oxolane-2-carboxamide], the “Emax (% Dual)” value (F508del/F508del CFTR) was 167 % Dual, the EC50 (F508del/F508del CFTR) was greater than 800 nM and the EC50 (F508delCFTR; [1]) was 2520 nM. For the same compound, the “Maximum % activity (with co-corrector)” value (F508delCFTR; with co-corrector 2 μM) was 449%, the EC50 (F508delCFTR; [2]) was 3630 nM and the Emax (F508delCFTR; without co-corrector) was 141%.

CCc1ccc(Oc2cccnc2OC)c([C@@]2(C(=O)NS(=O)(=O)c3cccc4nc(C)ccc34)CCCO2)c1 [Example 25, (2R)-2-{5-ethyl-2-[(2-methoxypyridin-3-yl)oxy]phenyl}-N-(2-methylquinoline-5-sulfonyl)oxolane-2-carboxamide] was tested, and the “Emax (% Dual)” value (F508del/F508del CFTR) was 279 % Dual, the EC50 (F508del/F508del CFTR) was 30.6 nM and the EC50 (F508delCFTR; [1]) was 580 nM. For the same compound, the “Maximum % activity (with co-corrector)” value (F508delCFTR; with co-corrector 2 μM) was 954%, the EC50 (F508delCFTR; [2]) was 1450 nM and the Emax (F508delCFTR; without co-corrector) was 476%.

CCc1ccc(Oc2cccnc2OC(F)F)c([C@]2(C(=O)NS(=O)(=O)c3cccc4nc(C)ccc34)CCCO2)c1 [Example 26, (2S)-2-(2-{[2-(difluoromethoxy)pyridin-3-yl]oxy}-5-ethylphenyl)-N-(2-methylquinoline-5-sulfonyl)oxolane-2-carboxamide] was tested, and the “Emax (% Dual)” value (F508del/F508del CFTR) was 130 % Dual, the EC50 (F508del/F508del CFTR) was 171 nM and the EC50 (F508delCFTR; [1]) was 3270 nM. The “Maximum % activity (with co-corrector)” value (F508delCFTR; with co-corrector 2 μM) was 828%, the EC50 (F508delCFTR; [2]) was 3970 nM and the Emax (F508delCFTR; without co-corrector) was 282%.

CCc1ccc(Oc2cccnc2OC(F)F)c([C@@]2(C(=O)NS(=O)(=O)c3cccc4nc(C)ccc34)CCCO2)c1 [Example 27, (2R)-2-(2-{[2-(difluoromethoxy)pyridin-3-yl]oxy}-5-ethylphenyl)-N-(2-methylquinoline-5-sulfonyl)oxolane-2-carboxamide] was tested, and the “Emax (% Dual)” value (F508del/F508del CFTR) was 212 % Dual, the EC50 (F508del/F508del CFTR) was 4.6 nM and the EC50 (F508delCFTR; [1]) was 650 nM. It also gave an EC50 (F508delCFTR; [2]) of 1470 nM and an Emax (F508delCFTR; without co-corrector) of 709%.

In the case of COc1ccc(C)cc1[C@@]1(C(=O)NS(=O)(=O)c2cccc3nc(C)ccc23)C[C@H](OC)CO1 [Example 28, (2R,4S)-4-methoxy-2-(2-methoxy-5-methylphenyl)-N-(2-methylquinoline-5-sulfonyl)oxolane-2-carboxamide], the “Emax (% Dual)” value (F508del/F508del CFTR) is reported as 182 % Dual, the EC50 (F508del/F508del CFTR) is reported as 1100 nM and the EC50 (F508delCFTR; [1]) is reported as 3470 nM. The “Maximum % activity (with co-corrector)” value (F508delCFTR; with co-corrector 2 μM) was 513%, the EC50 (F508delCFTR; [2]) was 4110 nM and the Emax (F508delCFTR; without co-corrector) was 180%.

For COc1ccc(C)cc1[C@@]1(C(=O)NS(=O)(=O)c2cccc3nc(C)ccc23)C[C@@H](OC)CO1 [Example 29, (2R,4R)-4-methoxy-2-(2-methoxy-5-methylphenyl)-N-(2-methylquinoline-5-sulfonyl)oxolane-2-carboxamide], the “Emax (% Dual)” value (F508del/F508del CFTR) was 230 % Dual, the EC50 (F508del/F508del CFTR) was 164 nM and the EC50 (F508delCFTR; [1]) was 1210 nM. For the same compound, the “Maximum % activity (with co-corrector)” value (F508delCFTR; with co-corrector 2 μM) was 587%, the EC50 (F508delCFTR; [2]) was 1860 nM and the Emax (F508delCFTR; without co-corrector) was 213%.

With COc1ccc(C)cc1[C@@]1(C(=O)NS(=O)(=O)c2cccc3nc(C)ccc23)C[C@](C)(OC)CO1 [Example 30, (2R,4S)-4-methoxy-2-(2-methoxy-5-methylphenyl)-4-methyl-N-(2-methylquinoline-5-sulfonyl)oxolane-2-carboxamide] the “Emax (% Dual)” value (F508del/F508del CFTR) was 197 % Dual, the EC50 (F508del/F508del CFTR) was 331 nM and the EC50 (F508delCFTR; [2]) was 2630 nM. It also gave an Emax (F508delCFTR; without co-corrector) of 301%.

COc1ccc(C)cc1[C@]1(C(=O)NS(=O)(=O)c2cccc3nc(C)ccc23)C[C@@](C)(OC)CO1 [Example 31, (2S,4R)-4-methoxy-2-(2-methoxy-5-methylphenyl)-4-methyl-N-(2-methylquinoline-5-sulfonyl)oxolane-2-carboxamide] was tested, and the “Emax (% Dual)” value (F508del/F508del CFTR) was 117 % Dual, the EC50 (F508del/F508del CFTR) was greater than 5000 nM and the EC50 (F508delCFTR; [2]) was 5160 nM. For the same compound, the Emax (F508delCFTR; without co-corrector) was 100%.

— patent US20220211692A1, “Modulators of the Cystic Fibrosis Transmembrane Conductance Regulator Protein and Methods of Use” (AbbVie Global Enterprises Ltd., priority 2021, published 2022)
